Structures are written as SMILES. Structures can show the parent of a compound that is named as a salt.

Series [1] in a line: Solubilities of active ingredient in various solvents (excess added, shaken 2 hours, centrifuged, HPLC). In kind it is physicochemical. The protocol: In order to find out the most suitable solvent for the solid dispersion, an excessive amount of HM30181A, as an active ingredient, was added to a solvent, shook for 2 hours, and then the resulting mixture was centrifuged and analyzed by HPLC to measure the solubility. Solvents used for solubility test were MC, methanol, EtOH, hexane, diethyl ether, isopropyl alcohol, acetone and DW.

A short description of series [2]: Dissolution characteristics of HM30181A in mixed solvents of MC, EtOH and DW. The class given is physicochemical.
Where [3] appears, read: Composition 1: HM30181A 15 mg, methylene chloride 450 mg, ethanol 50 mg, distilled water 0 mg.
Where [4] appears, read: Composition 2: HM30181A 15 mg, methylene chloride 350 mg, ethanol 150 mg, distilled water 0 mg.
[5] abbreviates: Composition 3: HM30181A 15 mg, methylene chloride 250 mg, ethanol 250 mg, distilled water 0 mg.
Setting [6] is: Composition 5: HM30181A 15 mg, methylene chloride 350 mg, ethanol 150 mg, distilled water 25 mg.

On to `COc1cc2c(cc1OC)CN(CCc1ccc(-n3nnc(-c4cc(OC)c(OC)cc4NC(=O)c4cc(=O)c5ccccc5o4)n3)cc1)CC2` [HM30181A, chromone-2-carboxylic acid [2-(2-{4-[2-(6,7-dimethoxy-3,4-di-hydro-1H-isoquinolin-2-yl)-ethyl]-phenyl}-2H-tetrazol-5-yl)-4,5-dimethoxyphenyl]amine mesylate], for which the Solubility in series [1] (solvent: acetone) was determined as 9.23 ppm; in series [1] (solvent: diethyl ether), 0.00 ppm; in series [1] (solvent: distilled water), 0.00 ppm; in series [1] (solvent: ethanol), 382.63 ppm; in series [1] (solvent: hexane), 0.05 ppm; in series [1] (solvent: isopropyl alcohol), 31.29 ppm. Besides, the Solubility is given as 10177.50 ppm in series [1] (solvent: methanol); 6848.28 ppm in series [1] (solvent: methylene chloride); 10,260 ppm in series [2] (setting [3]); 20,370 ppm in series [2] (setting [4]); 4,710 ppm in series [2] (setting [5]); 27,850 ppm in series [2] (setting [6]). The Solution appearance entry in series [2] (setting [3]) is “Clouded”; in series [2] (setting [4]), “Clouded”; in series [2] (setting [5]) it was “Clouded”; in series [2] (setting [6]), “Clear”.

The values are drawn from patent US9283218B2, “Solid dispersion with improved solubility comprising tetrazole derivative as an active ingredient” (HANMI PHARM. CO., LTD., priority 2012, dated 2016).
